The subject of this experiment is pressure ulcer. As to the kind of experiment: topical composition applied to one pressure ulcer of a patient, another pressure ulcer left untreated. The class given is in vivo. Conditions: patient diagnosed with pressure ulcers. The source says: A patient is diagnosed with pressure ulcers. A topical composition comprising the calcium channel blocker nifedipine is applied to one pressure ulcer while another pressure ulcer is left untreated. […] A patient is diagnosed with pressure ulcers. A topical composition comprising the ACE inhibitor enalapril is applied to one pressure ulcer while another pressure ulcer is left untreated. […] A patient is diagnosed with pressure ulcers. A topical composition comprising the angiotensin receptor blocker losartan is applied to one pressure ulcer while another pressure ulcer is left untreated.

The source of these data is patent US20210069108A1, “METHODS FOR PREVENTION AND TREATMENT OF PRESSURE ULCERS CAUSED BY ISCHEMIA USING CONTACT VASODILATORS” (priority 2018, published 2021).

Turning to `CCOC(=O)[C@H](CCc1ccccc1)N[C@@H](C)C(=O)N1CCC[C@H]1C(=O)O` [enalapril], the “healing of the treated pressure ulcer compared with the untreated pressure ulcer” value is reported as “heal faster than the untreated pressure ulcer”.
For `CCCCc1nc(Cl)c(CO)n1Cc1ccc(-c2ccccc2-c2nn[nH]n2)cc1` [losartan] the value was “heal faster than the untreated pressure ulcer”.
